How the values were obtained:
[1] = system: histamine-induced pruritus; assay: Antipruritic activity, histamine-induced pruritus in mice; format: in vivo, CD-1 mice; settings: for inhibition of pruritus following histamine injections (in words): intradermal histamine, Example 5, JNJ7777120 and desloratadine 20 mg/kg oral
Method: Antipruritic effects were tested in vivo in CD-1 mice, females, 10-12 weeks, according to methods known in the art. The hair was clipped over the rostral part of the back at the interscapular level of the mice one day before the dosing. Before the testing, the mice were placed in individual clear plastic cages for at least one hour for acclimation. After fasting for 1.5 hours, the animals were dosed orally with the test article, dissolved in a vehicle consisting of 1% methylcellulose/water, 10 mL/kg body weight. Sixty minutes after the oral dosing, an intradermal injection of histamine (300 nmol in 20 μl phosphate buffered saline (PBS), pH 7.4) was administered. Immediately after the histamine injection, the bouts of scratches were counted for 40 min. Scratching induced by the histamine vehicle PBS served as control.
Norketotifen was tested in escalating doses and in a supramaximal dose of 100 mg/kg.

[2] = Repeat-dose pharmacological and toxicological studies in dogs; format: in vivo; settings: daily doses up to 20 mg/kg/day
Source text: Dogs vomit spontaneously for a variety of benign reasons—to expel unwanted content from their stomach, as a result of gastric irritation or in response to colonic irritation. In recent toxicological studies in dogs of various drugs, including isomeric norketotifen, vomiting occurred in both control groups and drug groups and may have been treatment-related, rather than drug-related. The unexpectedly low systemic toxicity of norketotifen and the isomers thereof is believed to be due to low systemic (plasma) concentrations, caused by the fact that norketotifen and the isomers thereof are not circulating in plasma but are accumulating in the skin, which is the largest organ in the body.

[3] = Sedation in human subjects; format: in vivo; settings: doses of 5 mg and 10 mg, humans
[4] = system: histamine-induced pruritus; settings: intradermal histamine, humans and mice; not tested in Example 5; cited from earlier work

| Compound | inhibition of pruritus following histamine injections (in words) [1] | inhibition of histamine-induced pruritus at supramaximal dose ([1]; 100 mg/kg oral, histamine 300 nmol intradermal, bouts counted 40 min) | inhibition of histamine-induced pruritus, escalating doses ([1]; escalating oral doses, histamine 300 nmol intradermal) | sedation or other adverse events, chronic dosing [2] | sedation in human subjects [3] | inhibition of pruritus following histamine injections (in words), general statement [4] |
| --- | --- | --- | --- | --- | --- | --- |
| CN1CCN(C(=O)c2cc3cc(Cl)ccc3[nH]2)CC1 [JNJ7777120, reference compound] | potently inhibited | – | – | – | – | – |
| O=C1Cc2ccccc2C(=C2CCNCC2)c2ccsc21 [Norketotifen, norketotifen] | potently inhibited | complete inhibition | dose-dependently inhibiting histamine-induced pruritus | without causing sedation or other adverse events | do not produce sedation | – |
| CC(C)(C(=O)O)c1ccc(C(O)CCCN2CCC(C(O)(c3ccccc3)c3ccccc3)CC2)cc1 (stereo not shown) [fexofenadine] | – | – | – | – | – | not inhibited |

Reference: patent US9333199B2, “Methods of treatment of histamine H-4 receptor-related pruritus associated with nerve disorders” (BRIDGE PHARMA, INC., priority 2013, dated 2016)
